Experimental data as given in patent US4874752A, “Benzoquinone derivatives and production thereof” (Takeda Chemical Industries, Ltd., priority 1982, dated 1989).
Structures can show the parent of a compound that is named as a salt.

Target: T1, protocollagen-proline hydroxylase (Gallus gallus, UniProt P16924)
T1 construct: partially purified enzyme preparation obtained from chick embryos; from tissue; host or cells: chick embryos (partially purified enzyme)
T1 sequence (P16924 1-516): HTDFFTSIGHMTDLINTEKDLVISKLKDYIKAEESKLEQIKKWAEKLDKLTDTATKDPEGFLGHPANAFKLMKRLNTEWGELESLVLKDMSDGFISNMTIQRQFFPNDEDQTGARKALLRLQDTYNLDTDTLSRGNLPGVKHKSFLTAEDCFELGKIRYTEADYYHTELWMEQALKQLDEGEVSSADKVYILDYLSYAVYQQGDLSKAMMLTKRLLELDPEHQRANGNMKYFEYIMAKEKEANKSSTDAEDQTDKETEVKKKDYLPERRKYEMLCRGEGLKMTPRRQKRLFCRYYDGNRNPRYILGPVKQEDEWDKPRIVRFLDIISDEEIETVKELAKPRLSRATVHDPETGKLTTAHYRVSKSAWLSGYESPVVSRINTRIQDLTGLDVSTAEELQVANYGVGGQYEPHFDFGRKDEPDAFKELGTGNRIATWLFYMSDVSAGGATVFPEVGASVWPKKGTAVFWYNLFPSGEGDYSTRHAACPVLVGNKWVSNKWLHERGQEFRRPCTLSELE
T1 sequence (P09102 23-515 partner): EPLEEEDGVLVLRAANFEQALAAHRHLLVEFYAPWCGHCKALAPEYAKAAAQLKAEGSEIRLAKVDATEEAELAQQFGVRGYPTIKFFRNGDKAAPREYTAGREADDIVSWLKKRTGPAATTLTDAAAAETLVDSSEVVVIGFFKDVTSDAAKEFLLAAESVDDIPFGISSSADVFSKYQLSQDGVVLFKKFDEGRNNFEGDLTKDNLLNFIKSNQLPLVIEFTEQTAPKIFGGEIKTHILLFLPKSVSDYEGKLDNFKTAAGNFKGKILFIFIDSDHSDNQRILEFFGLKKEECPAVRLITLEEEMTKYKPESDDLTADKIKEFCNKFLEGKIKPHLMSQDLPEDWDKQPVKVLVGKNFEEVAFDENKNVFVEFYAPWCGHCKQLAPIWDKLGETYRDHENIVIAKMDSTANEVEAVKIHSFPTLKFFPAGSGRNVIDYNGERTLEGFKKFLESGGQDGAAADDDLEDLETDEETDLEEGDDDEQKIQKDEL
Test: Inhibitory activity of protocollagen-proline hydroxylase
Type: biochemical, chick embryos
Settings: for inhibition at 10 µM / Inhibition of protocollagen-proline hydroxylase: 10 μM
Text: Determination of this inhibitory activity was made by the method of R. E. Rhoads et al. [Methods in Enzymology XVII B, 306 (1971)] using a partially purified enzyme preparation obtained from chick embryos in accordance with the methods of K. I. Kivirriko et al. and J. Halme et al. [J. Biol, Chem. 242, 4007 (1967) and Biochim. Biophys. Acta 198, 460 (1967)] and, as a substrate, (Pro-Pro-Gly)5.4H2 O[prepared by the Protein Research Foundation, Osaka]. In this procedure, the partially purified enzyme was used in an amount of 100 μg as protein.

Row | Structure (SMILES) | inhibition at 20 µM [%] | inhibition at 10 µM [%] | inhibition at 50 µM [%] | further results
1 | COC1=C(OC)C(=O)C(c2nc3cc(C(C)C(=O)O)ccc3o2)=C(C)C1=O (stereo not drawn) | 76 | 54 | 84 | –
2 | COC1=C(OC)C(=O)C(CCC(=O)NCC(=O)O)=C(C)C1=O [m:0, n:2, Z:COGly, 3-(2,3-dimethoxy-5-methyl-1,4-benzoquinone-6-yl)propionyl-glycine] | 46 | – | – | –
3 | COC1=C(OC)C(=O)C(CC=C(C)COc2ccc(CC(=O)O)cc2)=C(C)C1=O [drawing 20] | 48 | 34 | 92 | –
4 | COC1=C(OC)C(=O)C(CCCCCCCCCCN2CCOCC2)=C(C)C1=O | – | – | – | inhibition at 25 µM (25 μM): 30%
5 | COC1=C(OC)C(=O)C(CN2CCOCC2)=C(C)C1=O | 78 | – | – | –
6 | COC1=C(OC)C(=O)C(CCOc2ccc(/C=C/C(=O)O)cc2)=C(C)C1=O | 100 | 99.9 | 100 | inhibition at 2.5 µM: 62%; inhibition at 5 µM: 72%
7 | COC1=C(OC)C(=O)C(CCC(=O)N[C@@H](CCCNC(=N)N)C(=O)O)=C(C)C1=O [m:0, n:2, Z:COArg (salt of acetic acid), 3-(2,3-dimethoxy-5-methyl-1,4-benzoquinon-6-yl)propionyl-L-arginine] | 56 | – | – | –
8 | COC1=C(OC)C(=O)C(CCC(=O)N[C@@H](CCC(=O)O)C(=O)O)=C(C)C1=O [m:0, n:2, Z:COGlu, 3-(2,3-dimethoxy-5-methylbenzoquinon-6-yl)propionyl-L-glutamic acid] | 20 | – | – | –
9 | COC1=C(OC)C(=O)C(CCOc2ccc(CC(=O)O)cc2)=C(C)C1=O | 100 | 100 | 100 | inhibition at 2.5 µM: 64%; inhibition at 5 µM: 74%; Inhibition of protocollagen-proline hydroxylase: 82%
10 | COC1=C(OC)C(=O)C(CCCCCCCCCC(=O)N2CSCC2C(=O)O)=C(C)C1=O (stereo not drawn) | 35 | – | – | –
11 | COC(=O)/C=C/C=C/C=C/C=C/C1=C(C)C(=O)C(OC)=C(OC)C1=O | 67 | 38 | 76 | –
12 | COC1=C(OC)C(=O)C(COc2ccc(C(C)C(=O)O)cc2)=C(C)C1=O (stereo not drawn) | 100 | 100 | 100 | inhibition at 2.5 µM: 70%; inhibition at 5 µM: 75%; Inhibition of protocollagen-proline hydroxylase: 92%
13 | COC1=C(OC)C(=O)C(/C=C/C(=O)O)=C(C)C1=O [drawing 25] | 46 | 37 | 68 | inhibition at 2.5 µM: 0%; inhibition at 5 µM: 22%
14 | COC1=C(OC)C(=O)C(CCC(=O)N[C@@H](Cc2ccc(O)cc2)C(=O)O)=C(C)C1=O [m:0, n:2, Z:COTyr, 3-(2,3-dimethoxy-5-methyl-1,4-benzoquinon-6-yl)propionyl-L-tyrosine] | 35 | – | – | –
15 | COC1=C(OC)C(=O)C(CCC(=O)N2CCC[C@H]2C(=O)O)=C(C)C1=O [m:0, n:2, Z:COPro, 3-(2,3-dimethoxy-5-methyl-1,4-benzoquinon-6-yl)propionyl-L-proline] | 35 | – | – | –
16 | COC1=C(OC)C(=O)C(/C=C/C(C)=O)=C(C)C1=O [drawing 26] | 92 | 85 | 92 | inhibition at 2.5 µM: 51%; inhibition at 5 µM: 72%

Now from value to compound, other results behind:

Row | inhibition at 20 µM [%] | inhibition at 10 µM [%] | inhibition at 50 µM [%] | Structure (SMILES) | further results
17 | 52 | – | – | COC1=C(OC)C(=O)C(CCCCCCCCCC(=O)N[C@@H](Cc2c[nH]cn2)C(=O)O)=C(C)C1=O [m:0, n:9, Z:COHis, 10-(2,3-dimethoxy-5-methyl-1,4-benzoquinon-6-yl)decanoyl-L-histidine] | –
18 | 32 | – | – | COC1=C(OC)C(=O)C(CCC(=O)N[C@@H](C)C(=O)O)=C(C)C1=O [m:0, n:2, Z:CoAla, 3-(2,3-dimethoxy-5-methyl-1,4-benzoquinon-6-yl)propionyl-L-alanine] | –
19 | 52 | – | – | COC1=C(OC)C(=O)C(CCCCCCCCCC(=O)N[C@H]2C(O)O[C@H](CO)[C@@H](O)[C@@H]2O)=C(C)C1=O (stereo partly drawn) [m:0, n:9, Z:COGlcN, N-[10-(2,3-dimethoxy-5-methyl-1,4-benzoquinon-6-yl)decanoyl]glucosamine] | –
20 | 25 | – | – | COC1=C(OC)C(=O)C(CCCCCCCCCC(=O)N[C@@H](CCCCN)C(=O)O)=C(C)C1=O [m:0, n:9, Z:COLys, 10-(2,3-dimethoxy-5-methyl-1,4-benzoquinon-6-yl)decanoyl-L-lysine] | –
21 | 38 | – | – | COC1=C(OC)C(=O)C(CCCCCCCCCC(=O)N[C@@H](CCSC)C(=O)O)=C(C)C1=O [m:0, n:9, Z:COMet, 10-(2,3-dimethoxy-5-methyl-1,4-benzoquinon-6-yl)decanoyl-L-methionine] | –
22 | 37 | – | – | COC1=C(OC)C(=O)C(CCCCCCCCCC(=O)NC(CCC(=O)O)C(=O)O)=C(C)C1=O (stereo not drawn) [m:0, n:9, Z:COGlu] | –
23 | 15 | – | – | COC1=C(OC)C(=O)C(CCCCCCCCCC(=O)N[C@@H](Cc2c[nH]c3ccccc23)C(=O)O)=C(C)C1=O [m:0, n:9, Z:COTrp, 10-(2,3-dimethoxy-5-methyl-1,4-benzoquinon-6-yl)decanoyl-L-tryptophan] | –
24 | 52 | – | – | COC1=C(OC)C(=O)C(CCCCCCCCCC(=O)N[C@@H](CCCNC(=N)N)C(=O)O)=C(C)C1=O [m:0, n:9, Z:COArg (salt of acetic acid), 10-(2,3-dimethoxy-5-methyl-1,4-benzoquinon-6-yl)decanoyl-L-arginine] | –
25 | 35 | – | – | COC1=C(OC)C(=O)C(CCCCCCCCCC(=O)N[C@H](Cc2ccccc2)C(=O)O)=C(C)C1=O [m:0, n:9, Z:COPhe, 10-(2,3-dimethoxy-5-methyl-1,4-benzoquinon-6-yl)decanoyl-D-phenylalanine] | –
26 | 32 | – | – | COC1=C(OC)C(=O)C(CCCCCCCCCC(=O)OC[C@H]2OC(O)[C@H](NC(C)=O)[C@@H](O[C@H](C)C(=O)O)[C@@H]2O)=C(C)C1=O (stereo partly drawn) [m:0, n:9, Z:COMurNAc, N-acetyl-6O-[10-(2,3-dimethoxy-5-methyl-1,4-benzoquinon-6-yl)decanoyl]muraminic acid] | –
